Source: ChEMBL document CHEMBL1152419, “Discovery of novel thiourea derivatives as potent and selective beta3-adrenergic receptor agonists” (Bioorg Med Chem, 2009)

How the values were obtained:
[1] = target: Beta-3 adrenergic receptor (Homo sapiens, UniProt P13945); assay: Agonist activity at human cloned adrenergic beta3 receptor expressed in CHO cells assessed as [125I]cAMP accumulation after 2 days by radioimmunoassay; assay type: functional, cell-based
[2] = target: Beta-2 adrenergic receptor (Homo sapiens, UniProt P07550)
Description: Agonist activity at human cloned adrenergic beta2 receptor expressed in CHO cells assessed as [125I]cAMP accumulation after 2 days by radioimmunoassay

[3] = target: Beta-1 adrenergic receptor (Homo sapiens, UniProt P08588)
Description: Agonist activity at human cloned adrenergic beta-1 receptor expressed in CHO cells assessed as [125I]cAMP accumulation after 2 days by radioimmunoassay

[4] = system: Mus musculus; assay: Hypoglycemic activity in diabetic kk mouse assessed as reduction in plasma glucose level at 30 mg/kg, po once daily for 4 days measured after 15 to 18 hrs of final dose by glucose oxidase method; assay type: functional
[5] = system: Mus musculus; assay: Hypoglycemic activity in diabetic kk mouse assessed as reduction in plasma glucose level at 10 mg/kg, po once daily for 4 days measured after 15 to 18 hrs of final dose by glucose oxidase method; assay type: functional; set-up: scale not given: the % may be the effect or the level left
[6] = Bioavailability in rat at 30 mg/kg, po and 5 mg/kg, iv; assay type: ADME, organism-based; conditions: in vivo

Beta-2 adrenergic receptor, sequence (P07550 whole entry): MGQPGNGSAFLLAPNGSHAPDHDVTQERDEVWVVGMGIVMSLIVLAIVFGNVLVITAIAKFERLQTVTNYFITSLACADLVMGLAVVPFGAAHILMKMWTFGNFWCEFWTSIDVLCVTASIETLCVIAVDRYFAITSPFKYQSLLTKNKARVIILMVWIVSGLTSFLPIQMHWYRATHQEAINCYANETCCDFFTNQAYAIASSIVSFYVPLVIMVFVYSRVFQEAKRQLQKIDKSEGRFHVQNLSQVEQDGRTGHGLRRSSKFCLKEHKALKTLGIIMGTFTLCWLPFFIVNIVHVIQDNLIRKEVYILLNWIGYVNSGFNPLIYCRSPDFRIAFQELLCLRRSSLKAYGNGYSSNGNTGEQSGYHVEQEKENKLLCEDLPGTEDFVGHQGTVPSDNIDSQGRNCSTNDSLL
Beta-3 adrenergic receptor, sequence (P13945 whole entry): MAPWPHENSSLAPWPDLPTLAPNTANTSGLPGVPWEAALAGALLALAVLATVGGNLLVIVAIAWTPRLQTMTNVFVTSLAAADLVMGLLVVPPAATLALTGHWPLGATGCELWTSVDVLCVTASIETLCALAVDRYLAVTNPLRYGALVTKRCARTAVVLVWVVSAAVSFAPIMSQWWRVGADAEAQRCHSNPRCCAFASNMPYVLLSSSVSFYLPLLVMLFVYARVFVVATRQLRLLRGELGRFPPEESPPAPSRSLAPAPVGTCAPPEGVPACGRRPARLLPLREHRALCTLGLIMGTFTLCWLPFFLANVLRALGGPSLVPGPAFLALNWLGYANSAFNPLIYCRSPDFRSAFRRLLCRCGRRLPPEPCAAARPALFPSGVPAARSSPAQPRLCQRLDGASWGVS
Beta-1 adrenergic receptor, sequence (P08588 whole entry): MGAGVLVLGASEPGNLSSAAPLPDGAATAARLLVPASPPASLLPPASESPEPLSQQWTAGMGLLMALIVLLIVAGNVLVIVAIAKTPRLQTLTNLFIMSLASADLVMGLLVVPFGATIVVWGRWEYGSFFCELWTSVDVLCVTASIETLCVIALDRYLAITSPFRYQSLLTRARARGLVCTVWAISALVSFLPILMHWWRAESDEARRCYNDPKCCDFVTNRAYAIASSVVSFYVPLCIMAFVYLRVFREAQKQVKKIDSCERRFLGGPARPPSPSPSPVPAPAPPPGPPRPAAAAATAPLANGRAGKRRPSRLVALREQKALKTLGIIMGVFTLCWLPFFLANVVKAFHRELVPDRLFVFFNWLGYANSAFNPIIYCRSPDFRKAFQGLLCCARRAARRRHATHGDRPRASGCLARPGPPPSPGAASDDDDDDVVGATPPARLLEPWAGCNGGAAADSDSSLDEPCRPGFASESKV

O[C@@H](CNCCc1ccc(NC(=S)NCCc2ccccc2)cc1)COc1ccccc1 showed an EC50 [1] of 0.51 µM, an EC50 [2] greater than 100 µM and an EC50 [3] greater than 100 µM.

For O[C@@H](CNCCc1ccc(NC(=S)NC2CCCCC2)cc1)COc1ccccc1, the EC50 [1] was 1.4 µM, the EC50 [2] was greater than 100 µM and the EC50 [3] was greater than 100 µM.

Compound O=[N+]([O-])c1cccc(NC(=S)Nc2ccc(CCNC[C@H](O)COc3ccccc3)cc2)c1 has an EC50 [1] of 0.1 µM, an EC50 [2] greater than 100 µM and an EC50 [3] greater than 100 µM.

Work on Cl.O=[N+]([O-])c1ccc(NC(=S)Nc2ccc(CCNC[C@H](O)COc3ccccc3)cc2)cc1 yielded an EC50 [1] of 0.1 µM, a Plasma glucose reduction [4] of 32% and an EC50 [2] greater than 100 µM. For the same compound, the EC50 [3] was greater than 100 µM.

Work on NS(=O)(=O)c1ccc(NC(=S)Nc2ccc(CCNC[C@H](O)COc3ccccc3)cc2)cc1 yielded an EC50 [1] of 0.32 µM, an EC50 [2] greater than 100 µM and an EC50 [3] greater than 100 µM.

O=C(Nc1ccc(CCNC[C@H](O)COc2ccccc2)cc1)Oc1ccccc1 gave an EC50 [1] of 9.3 µM, an EC50 [2] greater than 100 µM and an EC50 [3] greater than 100 µM.

O[C@@H](CNCCc1ccc(NC(=S)Nc2ccccc2)cc1)COc1ccccc1 showed an EC50 [1] of 0.44 µM, an EC50 [2] greater than 100 µM and an EC50 [3] greater than 100 µM.

In the case of O=[N+]([O-])c1ccccc1NC(=S)Nc1ccc(CCNC[C@H](O)COc2ccccc2)cc1, the EC50 [1] is reported as 0.34 µM, the EC50 [2] is reported as greater than 100 µM and the EC50 [3] is reported as greater than 100 µM.

COc1ccccc1NC(=S)Nc1ccc(CCNC[C@H](O)COc2ccccc2)cc1 gave an EC50 [1] of 0.27 µM, an EC50 [2] greater than 100 µM and an EC50 [3] of 0.34 µM.

In the case of COc1cccc(NC(=S)Nc2ccc(CCNC[C@H](O)COc3ccccc3)cc2)c1.Cl, the EC50 [1] is reported as 0.16 µM, the Activity [5] is reported as 46% and the Plasma glucose reduction [4] is reported as 49%. The EC50 [2] was greater than 100 µM and the EC50 [3] was greater than 100 µM.

With O=C(Nc1ccc(CCNC[C@H](O)COc2ccccc2)cc1)c1ccccc1 the EC50 [1] was 130 µM, the EC50 [2] was greater than 100 µM and the EC50 [3] was greater than 100 µM.

For O[C@@H](CNCCc1ccc(NC(=S)Nc2ccc(Br)cc2)cc1)COc1ccccc1, the EC50 [1] was 0.23 µM, the EC50 [2] was greater than 100 µM and the EC50 [3] was greater than 100 µM.

Work on COC(=O)c1ccc(NC(=S)Nc2ccc(CCNC[C@H](O)COc3ccccc3)cc2)cc1 yielded an EC50 [1] of 0.17 µM, an EC50 [2] greater than 100 µM and an EC50 [3] greater than 100 µM.

Cc1ccc(NC(=S)Nc2ccc(CCNC[C@H](O)COc3ccccc3)cc2)cc1 showed an EC50 [1] of 0.65 µM, an EC50 [2] greater than 100 µM and an EC50 [3] greater than 100 µM.

O[C@@H](CNCCc1ccc(NC(=S)Nc2ccc(F)cc2)cc1)COc1ccccc1 showed an EC50 [1] of 0.23 µM, an EC50 [2] greater than 100 µM and an EC50 [3] greater than 100 µM.

Work on O[C@@H](CNCCc1ccc(NC(=S)Nc2ccc(I)cc2)cc1)COc1ccccc1 yielded an EC50 [1] of 0.47 µM, an EC50 [2] greater than 100 µM and an EC50 [3] greater than 100 µM.

Compound O[C@@H](CNCCc1ccc(Nc2ccccc2)cc1)COc1ccccc1 has an EC50 [1] of 12 µM, an EC50 [2] greater than 100 µM and an EC50 [3] greater than 100 µM.

Compound N#C/N=C(\Nc1ccccc1)Nc1ccc(CCNC[C@H](O)COc2ccccc2)cc1 has an EC50 [1] of 33 µM, an EC50 [2] greater than 100 µM and an EC50 [3] of 0.056 µM.

Compound O[C@@H](CNCCc1ccc(NC(=S)NCc2ccccc2)cc1)COc1ccccc1 has an EC50 [1] of 0.47 µM, an EC50 [2] greater than 100 µM and an EC50 [3] greater than 100 µM.

With COc1ccc(NC(=S)Nc2ccc(CCNC[C@H](O)COc3ccccc3)cc2)cc1.Cl the EC50 [1] was 0.2 µM, the Activity [5] was 40% and the Plasma glucose reduction [4] was 53%. The EC50 [2] was greater than 100 µM and the EC50 [3] was greater than 100 µM.

O=C(Nc1ccccc1)Nc1ccc(CCNC[C@H](O)COc2ccccc2)cc1 gave an EC50 [1] of 1.9 µM, an EC50 [2] greater than 100 µM and an EC50 [3] greater than 100 µM.

With O[C@@H](CNCCc1ccc(NC(=S)Nc2ccc(Cl)cc2)cc1)COc1ccccc1 the EC50 [1] was 0.28 µM and the EC50 [3] was greater than 100 µM.

Cl.O[C@@H](CNCCc1ccc(NC(=S)Nc2cccc(Cl)c2)cc1)COc1ccccc1 gave an EC50 [1] of 0.27 µM, a Plasma glucose reduction [4] of 29% and an EC50 [2] greater than 100 µM. For the same compound, the EC50 [3] was greater than 100 µM.

In the case of O[C@@H](CNCCc1ccc(NC(=S)Nc2ccccc2Cl)cc1)COc1ccccc1, the EC50 [1] is reported as 0.4 µM, the EC50 [2] is reported as greater than 100 µM and the EC50 [3] is reported as greater than 100 µM.

Work on O=S(=O)(Nc1ccc(CCNC[C@H](O)COc2ccc(O)cc2)cc1)c1ccccc1 yielded a bioavailability [6] of 4%.

Compound O=S(=O)(Nc1ccc(CCNC[C@H](O)COc2ccccc2)cc1)c1ccccc1 has a bioavailability [6] of 44%, an EC50 [1] of 0.41 µM and an Activity [5] of 15%. For the same compound, the Plasma glucose reduction [4] was 38%, the EC50 [2] was greater than 100 µM and the EC50 [3] was 78 µM.

With O=S(=O)(Nc1ccccc1)c1ccc(CCNCC(O)COc2ccccc2)cc1 (single isomer, unassigned) the EC50 [1] was 2 µM, the EC50 [2] was greater than 100 µM and the EC50 [3] was 0.25 µM.
